In brackets after ≈: the same amount, converted by molar mass.
system: not listed separately; test: Distribution coefficient, log D of the compound; format: physicochemical; details: octanol/water

Row | Compound | logD
1 | CC(C)(N)CNC(=O)C[C@H]1CC[C@]2(CC1)OO[C@]1(O2)C2CC3CC(C2)CC1C3 [OZ277] | 3.2
2 | CC(C)(N)CNC(=O)C[C@H]1CC[C@]2(CC1)OO[C@]1(O2)C2CC3CC1C[C@](O)(C3)C2 | 1.8
3 | CC(C)(N)CNC(=O)C[C@H]1CC[C@]2(CC1)OO[C@]1(O2)C2CC3CC1C[C@@](O)(C3)C2 | 1.8

system: Plasmodium falciparum; test: Antimalarial activity against Plasmodium falciparum K1; format: functional, organism-based; details: not given

Row | Compound | IC50 [µg/mL]
4 | CC(C)(N)CNC(=O)C[C@H]1CC[C@]2(CC1)OO[C@]1(O2)C2CC3CC(C2)CC1C3 [OZ277] | 0.001 (≈ 0.00255 µM)
5 | CC(C)(N)CNC(=O)C[C@H]1CC[C@]2(CC1)OO[C@]1(O2)C2CC3CC1C[C@](O)(C3)C2 | > 0.1
6 | CC(C)(N)CNC(=O)C[C@H]1CC[C@]2(CC1)OO[C@]1(O2)C2CC3CC1C[C@@](O)(C3)C2 | > 0.1
